Measured values as given in the CheMixHub ionic liquid set.

Assay: xn = mol fraction of the nth substance listed

CC[n+]1ccn(C)c1.O=C([O-])C(F)(F)C(F)(F)C(F)(F)C(F)(F)F + O
101 kPa
Settings | viscosity [mPa·s]
298.15 K, x1 = 0.02217 | 2.59
298.15 K, x1 = 0.1009 | 10.41
298.15 K, x1 = 0.2367 | 20.95
298.15 K, x1 = 0.4266 | 36.3
308.15 K, x1 = 0.03108 | 2.57
308.15 K, x1 = 0.04277 | 3.44
308.15 K, x1 = 0.08573 | 6
308.15 K, x1 = 0.1458 | 9.48
308.15 K, x1 = 0.2011 | 12.32
308.15 K, x1 = 0.2621 | 15.23
308.15 K, x1 = 0.3007 | 17.04
318.15 K, x1 = 0.02217 | 1.616
318.15 K, x1 = 0.1458 | 6.88
318.15 K, x1 = 0.1625 | 7.47

Cc1n(S(=O)(=O)O)cc[n+]1S(=O)(=O)O.O=C([O-])C(F)(F)F + CC#N
101 kPa
Settings | electrical conductivity [S/m]
278.15 K, x1 = 0.02551 | 1.39
283.15 K, x1 = 0.02551 | 1.36
288.15 K, x1 = 0.02551 | 1.3
293.15 K, x1 = 0.02551 | 1.29
298.15 K, x1 = 0.0052 | 0.351
298.15 K, x1 = 0.0104 | 0.528
298.15 K, x1 = 0.0155 | 0.698
298.15 K, x1 = 0.0205 | 1.04
298.15 K, x1 = 0.0255 | 1.26
298.15 K, x1 = 0.02551 | 1.26
303.15 K, x1 = 0.02551 | 1.2
308.15 K, x1 = 0.02551 | 1.15
313.15 K, x1 = 0.02551 | 1.1
318.15 K, x1 = 0.02551 | 1.09
323.15 K, x1 = 0.02551 | 1.08
328.15 K, x1 = 0.02551 | 0.706
333.15 K, x1 = 0.02551 | 0.616

CCCCC[N+](CCCCC)(CCCCC)CCCCC.[Br-] + CCCCCCCCCCCC[N+](C)(C)C.[Br-] + O
viscosity [mPa·s], 100 kPa
Settings | x2 = 5.425e-05, x1 = 0.0001802 | x2 = 0.0001085, x1 = 0.0001801 | x2 = 0.0001627, x1 = 0.0001801 | x2 = 0.000217, x1 = 0.0001801 | x2 = 0.0002712, x1 = 0.0001801 | x2 = 0.0003254, x1 = 0.0001801 | x2 = 0.0003796, x1 = 0.0001801 | x2 = 0.0004339, x1 = 0.0001801 | x2 = 0.0004881, x1 = 0.0001801 | x2 = 0.0005422, x1 = 0.0001801
293.15 K | 1.057 | 1.059 | 1.06 | 1.061 | 1.062 | 1.062 | 1.063 | 1.063 | 1.063 | 1.064
298.15 K | 0.943 | 0.944 | 0.945 | 0.946 | 0.948 | 0.949 | 0.95 | 0.951 | 0.951 | 0.953
303.15 K | 0.825 | 0.826 | 0.826 | 0.827 | 0.827 | 0.827 | 0.828 | 0.828 | 0.828 | 0.829
308.15 K | 0.745 | 0.746 | 0.746 | 0.746 | 0.747 | 0.747 | 0.747 | 0.748 | 0.748 | 0.749
313.15 K | 0.679 | 0.68 | 0.681 | 0.681 | 0.682 | 0.682 | 0.682 | 0.682 | 0.683 | 0.683
318.15 K | 0.624 | 0.625 | 0.625 | 0.625 | 0.626 | 0.626 | 0.626 | 0.626 | 0.626 | 0.627

[Br-].[Li+] + CCCCCC[n+]1ccn(C)c1.N#C[S-] + CN1CCCC1=O
298.15 K, 101 kPa
Settings | viscosity [mPa·s]
x2 = 0, x1 = 0.02735 | 2.37
x2 = 0, x1 = 0.05202 | 3.192
x2 = 0, x1 = 0.07626 | 4.329

CC1(C)CC(O)CC(C)(C)N1[O] + CC[N+](CC)(CC)CC.[Cl-] + O
323.15 K, 100 kPa, frequency 0.001 MHz
Settings | electrical conductivity [S/m]
x1 = 0.091, x2 = 0.182 | 1.2
x1 = 0.167, x2 = 0.167 | 0.61
x1 = 0.2, x2 = 0 | 0.019
x1 = 0.286, x2 = 0.143 | 0.16

CC(=O)CCC(=O)O + CCCC[N+](CCCC)(CCCC)CCCC.[Cl-]
Settings | electrical conductivity [S/m] | viscosity [mPa·s]
293.15 K, 101.33 kPa, x2 = 0.3333 | – | 609
298.15 K, 101.33 kPa, x2 = 0.3333 | – | 405
303.15 K, 101.33 kPa, x2 = 0.3333 | – | 276
308.15 K, 101.33 kPa, x2 = 0.3333 | – | 195
313.15 K, 101.33 kPa, x2 = 0.3333 | – | 141
318.15 K, 101.33 kPa, x2 = 0.3333 | – | 105
323.15 K, 101.33 kPa, x2 = 0.3333 | – | 79
328.15 K, 101.33 kPa, x2 = 0.3333 | – | 61
333.15 K, 101 kPa, x1 = 0.75 | 0.177 | 17.47
333.15 K, 101.33 kPa, x2 = 0.3333 | – | 48
338.15 K, 101.33 kPa, x2 = 0.3333 | – | 39
343.15 K, 101 kPa, x1 = 0.75 | 0.238 | –
343.15 K, 101.33 kPa, x2 = 0.3333 | – | 32
348.15 K, 101.33 kPa, x2 = 0.3333 | – | 26
353.15 K, 101.33 kPa, x2 = 0.3333 | – | 22

CC[n+]1ccn(C)c1.O=S(=O)([O-])C(F)(F)F + CS(C)=O
100 kPa
Settings | viscosity [mPa·s]
298.15 K, x1 = 0.1068 | 3.7
298.15 K, x1 = 0.3077 | 7.9
318.15 K, x1 = 0.4023 | 7
323.15 K, x1 = 0.4933 | 8.2

COCCOCCn1cc[n+](CCC#N)c1.O=S(=O)([N-]S(=O)(=O)C(F)(F)F)C(F)(F)F + CS(C)=O
101.3 kPa
Settings | electrical conductivity [S/m] | viscosity [mPa·s]
293.15 K, x1 = 0.1981 | 0.00634 | 8.12
293.15 K, x1 = 0.2776 | 0.00928 | –
303.15 K, x1 = 0.0989 | 0.00234 | –
303.15 K, x1 = 0.1981 | 0.00768 | –
303.15 K, x1 = 0.2776 | 0.0112 | 9.24
303.15 K, x1 = 0.5029 | 0.0405 | 26.2
303.15 K, x1 = 0.89 | 0.0942 | 83.1
313.15 K, x1 = 0.0989 | 0.00278 | –
313.15 K, x1 = 0.1981 | 0.00939 | –
313.15 K, x1 = 0.798 | 0.148 | 33.2
313.15 K, x1 = 0.89 | 0.125 | 51.5
323.15 K, x1 = 0.0989 | 0.00342 | –
323.15 K, x1 = 0.1981 | 0.0122 | 3.212
323.15 K, x1 = 0.798 | 0.203 | 24.66

CCCCCCCC[n+]1ccc2ccccc2c1.O=S(=O)([N-]S(=O)(=O)C(F)(F)F)C(F)(F)F + c1ccncc1
101 kPa
Settings | viscosity [mPa·s]
308.15 K, x2 = 0.0945 | 155
308.15 K, x2 = 0.8199 | 5.32
328.15 K, x2 = 0 | 67.9
328.15 K, x2 = 0.7274 | 4.82
338.15 K, x2 = 0.0945 | 38.2
338.15 K, x2 = 0.5383 | 10.76
338.15 K, x2 = 0.8199 | 3.09
348.15 K, x2 = 0.0945 | 26.97

O=S(=O)([O-])C(F)(F)F.[Li+] + CC[n+]1ccn(C)c1.O=S(=O)([N-]S(=O)(=O)C(F)(F)F)C(F)(F)F
electrical conductivity [S/m], 101 kPa
Settings | 288.15 K | 298.15 K | 333.15 K
x1 = 0.01919 | 0.57 | 0.819 | 2
x2 = 0.9274 | – | 0.672 | 1.71
x2 = 0.9587 | 0.515 | 0.766 | 1.93

NCCNCCN + CCCC[n+]1ccn(C)c1.F[B-](F)(F)F
101.3 kPa
Settings | viscosity [mPa·s]
298.15 K, x2 = 0 | 5.52
298.15 K, x2 = 0.3995 | 23.66
298.15 K, x2 = 0.5905 | 40.1
303.15 K, x2 = 0.2998 | 14.59
303.15 K, x2 = 0.4992 | 26.4
303.15 K, x2 = 0.5905 | 33.6
303.15 K, x2 = 0.6974 | 44.2
303.15 K, x2 = 0.8948 | 69.1
308.15 K, x2 = 0.2998 | 12.47
313.15 K, x2 = 0.1986 | 7.86
313.15 K, x2 = 0.3995 | 14.5
313.15 K, x2 = 0.4992 | 19.06
313.15 K, x2 = 0.6974 | 30.9
318.15 K, x2 = 0.051 | 3.95
323.15 K, x2 = 0.2998 | 8.65
323.15 K, x2 = 0.3995 | 11.33
323.15 K, x2 = 0.5905 | 18.26
328.15 K, x2 = 0.2998 | 7.68
328.15 K, x2 = 0.3995 | 9.9
328.15 K, x2 = 0.4992 | 12.63
328.15 K, x2 = 0.6974 | 19.4
333.15 K, x2 = 0.1986 | 4.89
333.15 K, x2 = 0.2998 | 6.68
333.15 K, x2 = 0.4992 | 11.19
333.15 K, x2 = 0.6974 | 17.57
333.15 K, x2 = 0.9496 | 24.5

O=C([O-])C(F)(F)F.O=S(=O)(O)n1cc[n+](S(=O)(=O)O)c1 + CO
electrical conductivity [S/m], 101 kPa
Settings | 288.15 K | 298.15 K | 308.15 K | 313.15 K | 333.15 K
x1 = 0.0052 | – | 1.85 | – | – | –
x1 = 0.02551 | 4.64 | – | 3.89 | 3.76 | 3.25

CC(=O)[O-].Cn1cc[n+](C)c1 + CCO
293.15 K, 101.3 kPa
Settings | electrical conductivity [S/m]
x2 = 0 | 0.275
x2 = 0.0694 | 0.335
x2 = 0.1341 | 0.401
x2 = 0.2695 | 0.559
x2 = 0.4097 | 0.873
x2 = 0.5071 | 1.197
x2 = 0.6815 | 1.821
x2 = 0.7393 | 1.903
x2 = 0.7685 | 1.86
x2 = 0.7896 | 1.683
x2 = 0.8843 | 0.86
x2 = 0.9267 | 0.491
x2 = 0.9487 | 0.302
x2 = 0.9595 | 0.213
x2 = 0.9709 | 0.131

CCCCOC(C)=O + CCCCCCCCn1cc[n+](C)c1.F[B-](F)(F)F
Settings | viscosity [mPa·s]
298.15 K, 101 kPa, x1 = 1 | 0.7
